Reference: article PMC4033659 (Journal of Medicinal Chemistry, 2014)

Assay: In vivo PK in rats after ip administration
Details: rat, ip 10 mg/kg, at Tmax 30 min

| Compound | brain (maximum concentration) [µM] | plasma (maximum concentration) [µM] |
| --- | --- | --- |
| COc1cc(C(=O)O)ccc1OCCCCOc1ccc(C(=O)CC(C)C)c(O)c1C [Compound 44, 4-{4-[3-Hydroxy-2-methyl-4-(3-methylbutanoyl)phenoxy]butoxy}-3-methoxybenzoic Acid] | 0.23 ± 0.10 | 10.57 ± 2.52 |
| Cc1c(OCCCCOc2ccc(F)c(C(=O)O)c2)ccc(C(=O)C(C)C)c1O [Compound 65, 2-Fluoro-5-(4-(3-hydroxy-4-isobutyryl-2-methylphenoxy)butoxy)benzoic Acid] |  | 5.44 ± 2.92 |
| CCCC(=O)c1ccc(OCCCCOc2cc(C(=O)O)ccc2OC)c(C)c1O [Compound 68, 3-(4-(4-Butyryl-3-hydroxy-2-methylphenoxy)butoxy)-4-methoxybenzoic Acid] |  | 2.18 ± 0.58 |
| COc1ccc(C(=O)O)cc1OCCCCOc1ccc(C(=O)CC(C)(C)C)c(O)c1C [Compound 72, 3-(4-(4-(3,3-Dimethylbutanoyl)-3-hydroxy-2-methylphenoxy)butoxy)-4-methoxybenzoic Acid] |  | 2.44 ± 2.19 |
| Cc1c(OCCCCOc2ccc(F)c(C(=O)O)c2)ccc(C(=O)CC(C)(C)C)c1O [Compound 75, 5-(4-(4-(3,3-Dimethylbutanoyl)-3-hydroxy-2-methylphenoxy)butoxy)-2-fluorobenzoic Acid] | 0.22 ± 0.04 | 6.52 ± 0.54 |
